In US12479822B2, “AHR agonists” (Eli Lilly and Company, priority 2021, dated 2025):
Where a name gives a salt, the structure may show the parent alone.

Molecular target: T1, Human AHR (Homo sapiens, UniProt P35869)
T1 construct: expressed in transfected cells
T1 sequence (P35869 11-848): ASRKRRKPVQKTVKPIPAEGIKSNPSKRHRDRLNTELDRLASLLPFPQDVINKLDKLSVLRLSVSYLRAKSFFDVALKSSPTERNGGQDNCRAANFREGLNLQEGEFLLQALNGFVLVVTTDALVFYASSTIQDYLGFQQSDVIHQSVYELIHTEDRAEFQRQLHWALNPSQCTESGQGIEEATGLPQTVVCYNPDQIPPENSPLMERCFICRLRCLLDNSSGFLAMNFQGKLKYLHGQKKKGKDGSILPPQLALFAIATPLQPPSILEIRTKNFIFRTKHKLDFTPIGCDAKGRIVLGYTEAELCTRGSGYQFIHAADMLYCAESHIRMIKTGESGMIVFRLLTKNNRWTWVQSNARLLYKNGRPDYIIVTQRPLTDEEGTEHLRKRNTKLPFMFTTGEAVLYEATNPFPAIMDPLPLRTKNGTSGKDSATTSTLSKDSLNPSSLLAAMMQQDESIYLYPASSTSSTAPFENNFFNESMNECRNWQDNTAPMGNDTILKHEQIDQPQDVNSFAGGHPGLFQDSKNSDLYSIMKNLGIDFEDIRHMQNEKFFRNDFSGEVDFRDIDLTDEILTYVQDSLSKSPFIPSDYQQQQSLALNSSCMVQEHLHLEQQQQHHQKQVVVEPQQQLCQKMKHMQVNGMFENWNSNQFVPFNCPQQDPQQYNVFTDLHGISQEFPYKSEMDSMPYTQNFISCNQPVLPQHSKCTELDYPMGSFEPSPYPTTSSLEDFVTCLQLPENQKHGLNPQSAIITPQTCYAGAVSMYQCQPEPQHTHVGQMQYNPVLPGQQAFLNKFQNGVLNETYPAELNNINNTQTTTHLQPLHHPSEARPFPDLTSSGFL
Experiment: hAHR Nuclear Translocation Assay
Assay type: cell-based
Settings: Jump-In T-REx HEK293 cells expressing AhR-EGFP chimera; 45 minutes incubation; ratio of EGFP fluorescent intensity in nuclear over cytosol; 20-point curve
Procedure: Stable cell lines were established using Jump-In™ T-REx™ HEK293 Retargeting Kit (Life Technologies). Human AHR cDNA was cloned into the pJTI R4 CMV-TO EGFP vector. The EGFP was cloned to the C-terminal of AHR to form AhR-EGFP chimera. The pJTI R4 CMV-TO AhR-EGFP vector was transfected using FuGENE® HD into Jump-In™ T-REx™ HEK293 cells. Transfected cells were selected using 2.5 mg/ml G418 for 10 to 14 days, then expanded, harvested, and suspended in freeze media (FBS with 8% DMSO) at 2×10^7 cells/ml, and aliquots were stored in liquid nitrogen. […] On the assay date, compound was serially diluted (1:2) into 384-well nunc plates with DMSO using acoustic dispensing (ECHO). The dose response was a 20-point curve. Compound was resuspended in 40 μl of DMEM plus 0.1% BSA. The culture media was damped and 25 μl of DMEM plus 0.1% BSA was added, then 25 μl of compound in DMEM plus 0.1% BSA was added into cell plates. Cells were incubated with compounds at 37° C. and 5% CO2 for 45 minutes. The final DMSO concentration was 0.2%. The media was damped after 45 minutes of incubation. The cells were fixed with 40 μl of cold methanol (−20° C.) for 20 minutes. The methanol was damped and 50 μl of DPBS containing 1 μg/ml Hochst was added into the cell plates. The intensity of EGFP was quantitated by using OPERA PHENIX® or Operetta™ high content image system (Perkin Elmer) with 20× Water Objective and five field per well. The ratio of EGFP fluorescent intensity in nuclear over cytosol was analyzed using a 4-parameter nonlinear logistic equation to determine the potency of AHR agonists.

| SMILES | EC50 [nM] |
| --- | --- |
| CO[C@H]1CC[C@@H](NC(=O)c2cc3cccc4c3n(c2=O)CC4)C1 (relative stereo) [Example 31, 11-Oxo-N-[rel-(1S,3R)-3-methoxycyclopentyl]-1-azatricyclo[6.3.1.04,12]dodeca-4(12),5,7,9-tetraene-10-carboxamide] | 53.2 |
| COc1ccc(NC(=O)c2cc3ccccc3n(C)c2=O)cc1 [Example 1, N-(4-Methoxyphenyl)-1-methyl-2-oxo-quinoline-3-carboxamide] | 0.304 |
| Cn1c(=O)c(C(=O)Nc2ccccc2O)cc2ccccc21 [Example 2, N-(2-Hydroxyphenyl)-1-methyl-2-oxo-quinoline-3-carboxamide] | 2.41 |
| COc1ccc(NC(=O)c2cc3ccccc3n(C)c2=O)cc1OC [Example 3, N-(3,4-Dimethoxyphenyl)-1-methyl-2-oxo-quinoline-3-carboxamide] | 0.837 |
| Cn1c(=O)c(C(=O)Nc2ccc(F)cc2)cc2ccccc21 [Example 4, N-(4-Fluorophenyl)-1-methyl-2-oxo-quinoline-3-carboxamide] | 0.214 |
| Cc1ccc(NC(=O)c2cc3ccccc3n(C)c2=O)cc1 [Example 5, 1-Methyl-2-oxo-N-(p-tolyl) quinoline-3-carboxamide] | 0.0971 |
| COc1ccc(NC(=O)c2cc3ccccc3n(C)c2=O)c(C)c1 [Example 6, N-(4-Methoxy-2-methyl-phenyl)-1-methyl-2-oxo-quinoline-3-carboxamide] | 5.17 |
| Cc1ccnc(NC(=O)c2cc3ccccc3n(C)c2=O)c1 [Example 7, 1-Methyl-N-(4-methyl-2-pyridyl)-2-oxo-quinoline-3-carboxamide] | 6.13 |
| COc1cccc(NC(=O)c2cc3ccccc3n(C)c2=O)c1 [Example 8, N-(3-Methoxyphenyl)-1-methyl-2-oxo-quinoline-3-carboxamide] | 1.12 |
| Cn1c(=O)c(C(=O)Nc2ccccn2)cc2ccccc21 [Example 9, 1-Methyl-2-oxo-N-(2-pyridyl)quinoline-3-carboxamide] | 0.613 |
| Cc1ccccc1NC(=O)c1cc2ccccc2n(C)c1=O [Example 11, 1-Methyl-N-(o-tolyl)-2-oxo-quinoline-3-carboxamide] | 3.5 |
| Cn1c(=O)c(C(=O)Nc2ccncc2)cc2ccccc21 [Example 12, 1-Methyl-2-oxo-N-(4-pyridyl)quinoline-3-carboxamide] | 6.89 |
| Cn1c(=O)c(C(=O)Nc2cccnc2)cc2ccccc21 [Example 13, 1-Methyl-2-oxo-N-(3-pyridyl)quinoline-3-carboxamide] | 3.72 |
| Cn1c(=O)c(C(=O)Nc2ncc(F)cn2)cc2ccccc21 [Example 14, N-(5-Fluoropyrimidin-2-yl)-1-methyl-2-oxo-quinoline-3-carboxamide] | 0.993 |
| COc1cnc(NC(=O)c2cc3ccccc3n(C)c2=O)nc1 [Example 15, N-(5-Methoxypyrimidin-2-yl)-1-methyl-2-oxo-quinoline-3-carboxamide] | 14.2 |
| COc1cnc(NC(=O)c2cc3ccccc3n(C)c2=O)cn1 [Example 16, N-(5-Methoxypyrazin-2-yl)-1-methyl-2-oxo-quinoline-3-carboxamide] | 1.09 |
| Cc1cnc(NC(=O)c2cc3ccccc3n(C)c2=O)nc1 [Example 17, 1-Methyl-N-(5-methylpyrimidin-2-yl)-2-oxo-quinoline-3-carboxamide] | 2.37 |
| Cn1c(=O)c(C(=O)Nc2ccc(F)cc2)cc2cccnc21 [Example 18, N-(4-Fluorophenyl)-1-methyl-2-oxo-1,8-naphthyridine-3-carboxamide] | 0.468 |
| Cc1cccc(NC(=O)c2cc3ccccc3n(C)c2=O)n1 [Example 19, 1-Methyl-N-(6-methyl-2-pyridyl)-2-oxo-quinoline-3-carboxamide] | 25.8 |

| SMILES | EC50 [nM] |
| --- | --- |
| Cc1ccc(NC(=O)c2cc3ccccc3n(C)c2=O)nc1 [Example 20, 1-Methyl-N-(5-methyl-2-pyridyl)-2-oxo-quinoline-3-carboxamide] | 0.675 |
| COc1cccc(NC(=O)c2cc3ccccc3n(C)c2=O)n1 [Example 21, N-(6-Methoxy-2-pyridyl)-1-methyl-2-oxo-quinoline-3-carboxamide] | 10.8 |
| Cn1c(=O)c(C(=O)Nc2ccc(F)cn2)cc2ccccc21 [Example 22, N-(5-Fluoro-2-pyridyl)-1-methyl-2-oxo-quinoline-3-carboxamide] | 0.389 |
| Cn1c(=O)c(C(=O)Nc2cccc(F)c2)cc2ccccc21 [Example 23, N-(3-Fluorophenyl)-1-methyl-2-oxo-quinoline-3-carboxamide] | 0.601 |
| Cn1c(=O)c(C(=O)Nc2ccc(C#N)nc2)cc2ccccc21 [Example 24, N-(6-Cyano-3-pyridyl)-1-methyl-2-oxo-quinoline-3-carboxamide] | 7.36 |
| COc1ccc(NC(=O)c2cc3cccc4c3n(c2=O)CCC4)cc1 [Example 25, N-(4-Methoxyphenyl)-2-oxo-1-azatricyclo[7.3.1.05,13]trideca-3,5,7,9(13)-tetraene-3-carboxamide] | 2.57 |
| COc1ccc(NC(=O)c2cc3cccc4c3n(c2=O)CC4)cc1 [Example 26, N-(4-Methoxyphenyl)-11-oxo-1-azatricyclo[6.3.1.04,12]dodeca-4(12),5,7,9-tetraene-10-carboxamide] | 0.701 |
| Cn1cc(NC(=O)c2cc3ccccc3n(C)c2=O)cn1 [Example 27, hydrochloride] | 10.6 |
| Cn1c(=O)c(C(=O)Nc2ncccc2F)cc2ccccc21 [Example 28, N-(3-Fluoro-2-pyridyl)-1-methyl-2-oxo-quinoline-3-carboxamide] | 1.91 |
| Cc1ccc(NC(=O)c2cc3cccc4c3n(c2=O)CC4)cc1 [Example 29, 11-Oxo-N-(p-tolyl)-1-azatricyclo[6.3.1.04,12]dodeca-4(12),5,7,9-tetraene-10-carboxamide] | 0.57 |
| O=C(Nc1ccc(F)cc1)c1cc2cccc3c2n(c1=O)CC3 [Example 30, N-(4-Fluorophenyl)-11-oxo-1-azatricyclo[6.3.1.04,12]dodeca-4(12),5,7,9-tetraene-10-carboxamide] | 0.511 |
| Cn1c(=O)c(C(=O)NC23CC(C2)C3)cc2ccccc21 [Example 32, N-(3-Bicyclo[1.1.1]pentanyl)-1-methyl-2-oxo-quinoline-3-carboxamide] | 16.4 |
| O=C(Nc1ccc(C(F)(F)F)cc1)c1cc2cccc3c2n(c1=O)CC3 [Example 33, 11-Oxo-N-[4-(trifluoromethyl)phenyl]-1-azatricyclo[6.3.1.04,12]dodeca-4(12),5,7,9-tetraene-10-carboxamide] | 1.33 |
| O=C(Nc1ccccc1)c1cc2ccccc2[nH]c1=O [Example 34, 2-Oxo-N-phenyl-1H-quinoline-3-carboxamide] | 9.04 |
| COc1ccc(NC(=O)c2cc3cccnc3n(C)c2=O)cc1 [Example 35, N-(4-Methoxyphenyl)-1-methyl-2-oxo-1,8-naphthyridine-3-carboxamide] | 2.29 |
| COc1ccc(NC(=O)c2cc3ccc(Br)cc3n(C)c2=O)cc1 [Example 36, 7-Bromo-N-(4-methoxyphenyl)-1-methyl-2-oxo-quinoline-3-carboxamide] | 0.832 |
| O=C(Nc1ccc(F)cn1)c1cc2cccc3c2n(c1=O)CC3 [Example 37, N-(5-Fluoro-2-pyridyl)-11-oxo-1-azatricyclo[6.3.1.04,12]dodeca-4(12),5,7,9-tetraene-10-carboxamide] | 0.807 |
| O=C(Nc1ncccn1)c1cc2cccc3c2n(c1=O)CC3 [Example 38, 11-Oxo-N-pyrimidin-2-yl-1-azatricyclo[6.3.1.04,12]dodeca-4(12),5,7,9-tetraene-10-carboxamide] | 6.34 |
| Cn1c(=O)c(C(=O)Nc2ncccn2)cc2ccccc21 [Example 39, 1-Methyl-2-oxo-N-pyrimidin-2-yl-quinoline-3-carboxamide] | 3.52 |
